# Patent US20020160968A1, “Inhibitors of cellular niacinamide mononucleotide formation and their use in cancer therapy” (Klinge Pharma GmbH, priority 1999, published 2002)
# Key:
# Hep G2 cells = assay: Nicotinamide Reversibility Assay / cell growth inhibition of Hep G2 cells (SRB, six days); format: cell-based, human; conditions: Homo sapiens, HepG2, 144 h; Hep G2; six days of compound incubation; SRB; read-out: Cell growth inhibition IC50-values [μM] Hep G2
# Procedure: Nicotinamide Reversibility Assay
# Hep G2 cells derived from a human liver carcinoma were plated at a density of 20,000 cells/ml in 12-well plastic dishes. Cultivation occurred in Richters IMEM-ZO nutrient medium with 5% fetal calf serum (FCS) in a tissue culture incubator with a gas mixture of 5% CO2 and 95% air at a temperature of 37° C. One day after plating, the culture medium was aspirated from the cells and replaced by fresh medium which contained the respective concentrations of the test compounds and where applicable of the nicotinamide. For the individual concentrations and the controls without test compounds, three-fold batches were done for each. Three days after the beginning of treatment, the medium was again renewed with the test compounds and where applicable the nicotinamide. After six days of compound incubation, the test was ended and the protein amount in the individual wells was determined with the sulforhodamin-B-method (according. to P. Skehan et al.: New Colorimetric Cytotoxicity Assay for Anticancer-Drug Screening. J. Natl. Cancer Inst. 82: 1107-1112, 1990). The IC50-values were taken from the dose-response curves and given as a comparative measurement for the activity of the test compounds.
# HepG2 cells = assay: Cell growth under high-density conditions (SRB assay), delayed cell death (DCD); format: cell-based, human; conditions: Homo sapiens, high density HepG2 cultures
# [1] = biological target: T1, niacinamide phosphoribosyltransferase (NAPRT, EC 2.4.2.12) (Homo sapiens, UniProt P43490); assay: Niacinamide phosphoribosyltransferase (NAPRT) assay, protamine-treated cytoplasmic fraction of K-562 cells; format: biochemical; conditions: for NAM: niacinamide mononucleotide formed, controls 79.1 and 71.8; for NA: niacinamide remaining, controls 389.7 and 397.0; for NAM [%] / NA [%]: portion of total radioactivity
# T1 construct: protamine-treated cytoplasmic fraction of K-562 cells as the enzyme source; endogenous in cells; host or cells: K-562 (ATCC CCL 243), freeze-thaw lysate, 23,000 x g supernatant treated with protamine sulfate
# T1 sequence (P43490 whole entry): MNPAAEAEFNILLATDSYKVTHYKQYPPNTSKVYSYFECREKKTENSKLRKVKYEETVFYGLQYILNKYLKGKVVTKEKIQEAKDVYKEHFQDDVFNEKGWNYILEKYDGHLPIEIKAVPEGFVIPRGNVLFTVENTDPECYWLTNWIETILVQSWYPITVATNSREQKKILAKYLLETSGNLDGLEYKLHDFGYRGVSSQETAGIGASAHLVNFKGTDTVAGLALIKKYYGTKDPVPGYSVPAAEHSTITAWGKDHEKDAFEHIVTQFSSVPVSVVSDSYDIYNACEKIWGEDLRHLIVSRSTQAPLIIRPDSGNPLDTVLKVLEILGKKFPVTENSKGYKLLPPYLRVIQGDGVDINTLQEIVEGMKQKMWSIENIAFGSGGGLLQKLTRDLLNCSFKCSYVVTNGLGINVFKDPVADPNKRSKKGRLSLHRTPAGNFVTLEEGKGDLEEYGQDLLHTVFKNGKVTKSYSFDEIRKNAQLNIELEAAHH
# Procedure: The effect of the compounds on the enzyme niacinamide phosphoribosyltransferase (NAPRT, EC 2.4.2.12) was investigated using for example protamine-treated cytoplasmic fraction of K-562 cells as the enzyme source according to the NAPRT assay described in the experimental part below. The investigated compounds were used in concentrations of 10 μM, except for K22387 and K22133 where the concentration was 1 μM.
# The assay is based on the amount of radioactive incorporation from ^14C-labelled niacinamide into niacinamide mononucleotide (NAM). NAM is subsequently separated from niacinamide (NA) by thin-layer chromatography and its quantity is determined by autoradiography.
# Niacinamide Phosphoribosyltransferase (NAPRT) Assay
# The human cell line K-562 (chronic myelogenous leukaemia) is obtained from the American Type Culture Collection (ATCC CCL 243), Rockville, Md., USA. The K-562 cells are cultured in RPMI (Sigma, Deisenhofen, Germany, Product No.: R6504) containing 10% foetal calf serum (PAN Systems GmbH, Aidenbach, Germany), 2.2 g/l NaHCO3 (Merck, Darmstadt, Germany), 50,000 IU/l penicillin and 50 mg/l streptomycin (Sigma).
# The K-562 cells are grown in RPMI supplemented with 10% FCS at 37° C. and 100% humidity in a 5% CO2 atmosphere up to a density of 2×10^6 cells per ml. Under these conditions, the cells grow logarithmically with a generation time of 24 hours. The cells are harvested by aspiration and centrifugation (250×g, 10 min, RT). Thereafter, the cells are washed at least 3 times by repeated centrifugation (250×g, 10 min, RT) and resuspension in CMF-PBS. After counting the cell suspension in a haematocytometer, the cells are spun into a tight pellet (390×g, […], RT) and the supernatant is carefully drawn off with a Pasteur pipette. The cells are then vortexed into suspension in sufficient lysis buffer to give a final concentration of 3×10^7 cells per ml. The suspension is frozen at −80° C. for at least one day and thawed slowly at room temperature to break up the cells. The breakage is usually greater than 95%, as determined by trypan blue exclusion. Following centrifugation at 23,000×g for 90 min at 0° C., the clarified supernatant is recovered on ice and 70 μl of 1% protamine sulfate is added per ml of supernatant. After 15 min on ice, the cloudy suspension is centrifuged a further 30 min at 23,000×g and 0° C. The final supernatant is stored in small aliquots at […] This supernatant contains about 950 to 1440 μg protein per ml. 120 to 140 μg protein per sample is used in the NAPRT assay (total assay volume: 0.5 ml).
# The niacinamide phosphoribosyltransferase activity is determined in a reaction solution of 0.5 ml consisting of 5 mM MgCl2, 2 mM ATP, 0.5 mM PRPP, and [^14C]niacinamide (10^−5 M to 10^−7 M) in 50 mM Tris buffer pH 8.8 (final concentrations in the assay). The reaction is started by adding 100 to 120 μl cell extract. After incubation for 1 hour at 37° C., the enzyme reaction is stopped by adding cold niacinamide (50 μl of a 100 mM niacinamide solution per 0.5 ml reaction mixture) and by heating on a heating block (2 min, 105° C.). The precipitate is removed by centrifugation (2,500×g, 10 min, 4° C.) and the supernatant is collected into a […] polypropylene vial with screw cap and stored at −20° C. until further analysis. A 10 μl aliquot is taken from the supernatant to determine the total amount of radioactivity.
# The ^14C-labelled components of the reaction mixture are separated and identified using thin-layer chromatography (TLC). 5 to 7.5 μl of each sample is transferred to a cellulose TLC foil using an automated sample applicator. The cellulose foil is developed using 1 M NH4 acetate:ethanol (3:7) as solvent. The chromatogram is run with added non-radioactive standards of NAD, NADP, NAM and niacinamide, and the spots were identified by UV absorption (RF values see Table 7). For autoradiography, the chromatogram is exposed to an imaging plate BAS-IIIs in a hypercassette for at least two days. […]
# [2] = minimum concentration which, despite initial growth, induced cell death below the number of initially seeded cells, Table 2
# [3] = compound 10 μM, controls 16.88 and 15.32
# [4] = compound 10 μM, controls 83.12 and 84.68
SMILES,IC50 (Hep G2 cells) [µM],minimal effective concentration (HepG2 cells; Table 5) [µM],minimal effective concentration (HepG2 cells; [2]) [µM],NAM ([1]; compound 10 μM) [pmol/h],NA ([1]; compound 10 μM) [pmol/h],"NAM [%] [1, 3] [%]","NA [%] [1, 4] [%]",NAM ([1]; compound 1 μM) [pmol/h],NA ([1]; compound 1 μM) [pmol/h],NA [%] ([1]; compound 1 μM),NAM [%] ([1]; compound 1 μM)
"O=C(CCc1cccnc1)NCCCCC1CCN(CCCCC2CCN(C(c3ccccc3)c3ccccc3)CC2)CC1 [Compound K22316, N-(4-(1-[4-{1-benzhydryl-piperidine-4-yl)-butyl]-piperidine-4-yl}-butyl)-3-pyridine-3-yl-propanoic acid amide]",0.9,1,1,0.0,468.8,0.00,100.00,–,–,–,–
"O=C(NCCCCCCNC(=O)NCc1cccnc1)NCCC(c1ccccc1)c1ccccc1 [Compound K22158, 1-(3,3-diphenylpropyl)-3-[6-(3-pyridine-3-yl-methylureido)-hexyl]-urea]",0.1,1,1,0.0,468.8,0.00,100.00,–,–,–,–
"O=C(/C=C/c1cccnc1)NCCCCCCCC(c1ccccc1)c1ccccc1 [Compound K22133, N-(8,8-diphenyl-octyl)-3-pyrid-3-yl-acrylamide]",0.02,0.03,0.03,–,–,–,–,0.0,468.8,100.00,0.00
